In patent US8476320B2, “Formulations for parenteral administration of amino-substituted (E)-2, 6-dialkoxystyryl 4-substituted benzylsulfones” (Onconova Therapeutics, Inc, priority 2007, dated 2013):

Key:
[1] = Accelerated stability of ON 01910.Na in formulations containing PEG at 75° C. (HPLC); type: physicochemical; details: for % ON 01910.Na Remaining: 75° C.
Procedure: (§1) The effect of dielectric constant on the stabilization of ON 01910.Na, for example, was investigated, for example, by preparing formulations containing propylene glycol and PEG 400. The accelerated stability studies were preformed at 75 and 90° C. […] The following tables summarizes the results:
(§2) The samples were evaluated by an HPLC assay utilizing a Phenomenex Luna C-18, 5 micron (4.6 mm×250 mm) reverse phase column at ambient conditions. The mobile phase consisted of 60%-0.1% Trifluoroacetic Acid in water: 40% Acetonitrile. The flow rate was set to 2.0 ml/minute and the eluant was monitored at 230 nm

[2] = tested on: patients with advanced solid tumors; experiment: Phase I dose escalation study by 2-hour intravenous infusion; type: in vivo; details: iv 2 hour infusion, twice per week for 3 weeks, ten days off; no grade 2 or worse toxicities
Procedure: Safety and efficacy of this formulation, for example, is tested in a Phase I clinical study, at The Johns Hopkins Sidney Kimmel Cancer Center, Baltimore, Md., i.e., “Phase I Dose Escalation Study Of ON 01910.Na By 2-Hour Intravenous Infusion In Patients With Advanced Solid Tumors”. U.S. FDA IND #66,780. The objectives of this study include an identification of a maximum tolerated dose (MTD) and a recommended dose for further clinical studies. A further object of the study is to establish a safety profile, i.e., to observe any toxicities. The patients in this study have advanced solid tumors that have failed conventional treatments, or for which no approved therapy exists. An object of the study is particularly to observe efficacy (anti-cancer effects).
The patients are administered the preferred formulation described herein of the ON 01910.Na drug (properly diluted in intravenous solution) over a two hour period, twice per week, for three weeks. The patients are subsequently observed for […], to constitute a four week treatment cycle.
This study started with a single patient at the first starting dose level of 80 mg per patient. If there is no grade 2 or worse drug-related toxicity (side effects) observed in the first four week cycle, then another patient may be dosed at the next higher dose level. The first patient was dosed at 80 mg per patient on Aug. 3, 2004. […]

[3] = Accelerated stability in formulations containing PEG or PG and pH 10 buffer at 90° C. (HPLC); type: physicochemical; details: for % ON 01910.Na Remaining: 90° C.
Procedure: as §1, §2

[4] = Infusion bag compatibility study; type: physicochemical; details: 75 mg/ml in PEG-400, bags containing 0.45% NaCl and 0.9% NaCl solutions
Procedure: This example summarizes the results of a compatibility study of ON 01910.Na drug product (75 mg/ml in PEG-400) in IV Infusion Bags and Sets containing 0.45% NaCl and 0.9% NaCl solutions. The study consisted of preparing solutions of 80 mg of the ON 01910.Na in 250 ml 0.9% NaCl, and 800 mg of ON01910.Na in 250 ml 0.45% NaCl, and storing them in IV infusion bags for over 24 hours to determine if there is any product loss or instability. The solutions were also passed through infusion sets at a rate of approximately 2 ml per minute for 120 minutes and monitored for product loss or instability.
The samples were analyzed by HPLC for Assay, % Recovery, and Impurities. Appearance, Osmolarity, and pH of the solutions were also monitored throughout the study. […]
Five ml of solution were removed from each bag for analysis at the following time points: T=0, 1 hr, 2 hr, 4 hr, 8 hr, and 24.5 hr. Appearance, Assay, % Impurities, % Recovery, Osmolarity, and pH were analyzed at each time points.
Results are shown in Tables 10-13. % Recovery is the percentage of drug substance as compared to the calculated amount, while % T0 is defined as the percentage of drug substance as compared to drug substance at the initial timepoint. […]

[5] = Solubility of the Na salt
[6] = Long term stability of 75 mg/mL ON 01910.Na in 100% PEG-400 (HPLC); type: physicochemical; details: 100% PEG-400 for clinical use
Procedure: ON 01910.Na IV solution was manufactured at a concentration of 75 mg/mL in 100% PEG-400. The finished product consisted of 3 mL of drug product aseptically filled into
presterilized 5 mL vials. The manufacturing was in compliance with current Good Manufacturing Practices regulations.
Visual Inspection (a) The zero-time data point is the same as the release data generated from the manufactured clinical lot. Analytical Methods: (a) HPLC—Chromatography is performed using a Phenomenex Luna C-18 (2), 5 micron
(4.6 mm×250 mm, PN 00G-4252-E0) column at ambient conditions. The mobile phase used is 60%-0.1% trifluoroacetic acid in water; 40% acetonitrile. The flow rate is set at 2.0 ml/min Injection volume is 50 μL. Detection is accomplished by means of a UV/VIS detector at 230, 254, and 320 nm. Instrument control and data acquisition is facilitated using a Waters Millennium (V 2.15) software package. The external calibration is obtained using ON 01910.Na standard solutions prepared in 50:50 acetonitrile:water. This analytical method was validated.

## COc1cc(OC)c(/C=C/S(=O)(=O)Cc2ccc(OC)c(NCC(=O)[O-])c2)c(OC)c1.[Na+] [ON 01910.Na, (E)-2,4,6-trimethoxystyryl-3-carboxymethylamino-4-methoxybenzylsulfone]
[1]; 0% PEG, 0 D
  % ON 01910.Na Remaining: 100.00%
[1]; 0% PEG, 0.25 D
  % ON 01910.Na Remaining: 86.47%
[1]; 0% PEG, 2 D
  % ON 01910.Na Remaining: 11.20%
[1]; 0% PEG, 7 D
  % ON 01910.Na Remaining: 0.47%
[1]; 0% PEG, 14 D
  % ON 01910.Na Remaining: 0.47%
[1]; 0% PEG, 28 D
  % ON 01910.Na Remaining: 0.02%
[1]; 25% PEG, 0 D
  % ON 01910.Na Remaining: 100.00%
[1]; 25% PEG, 0.25 D
  % ON 01910.Na Remaining: 98.12%
[1]; 25% PEG, 2 D
  % ON 01910.Na Remaining: 66.89%
[1]; 25% PEG, 7 D
  % ON 01910.Na Remaining: 42.13%
[1]; 25% PEG, 14 D
  % ON 01910.Na Remaining: 32.03%
[1]; 25% PEG, 28 D
  % ON 01910.Na Remaining: 29.80%
[1]; 50% PEG, 0 D
  % ON 01910.Na Remaining: 100.00%
[1]; 50% PEG, 0.25 D
  % ON 01910.Na Remaining: 100.32%
[1]; 50% PEG, 2 D
  % ON 01910.Na Remaining: 94.76%
[1]; 50% PEG, 7 D
  % ON 01910.Na Remaining: 86.06%
[1]; 50% PEG, 14 D
  % ON 01910.Na Remaining: 75.80%
[1]; 50% PEG, 28 D
  % ON 01910.Na Remaining: 68.73%
[1]; accelerated studies at 75 and 90° C.
  stability on addition of propylene glycol or PEG 400 to an aqueous formulation: drastically improved
[2]
  dose that can be safely administered: ≥ 2080 mg
[3]
  stability on adjusting the pH of the aqueous medium above 8: further improved
[3]; PEG:Buffer, After 72 hours
  % ON 01910.Na Remaining: 94.22%
[3]; PEG:Buffer, Control
  % ON 01910.Na Remaining: 100.00%
[3]; PEG:Water, After 72 hours
  % ON 01910.Na Remaining: 22.28%
[3]; PEG:Water, Control
  % ON 01910.Na Remaining: 100.00%
[3]; PG:Buffer, After 72 hours
  % ON 01910.Na Remaining: 79.62%
[3]; PG:Buffer, Control
  % ON 01910.Na Remaining: 100.00%
[3]; PG:Water, After 72 hours
  % ON 01910.Na Remaining: 15.79%
[3]; PG:Water, Control
  % ON 01910.Na Remaining: 100.00%
[3]; PH 10 buffer, After 72 hours
  % ON 01910.Na Remaining: 50.18%
[3]; PH 10 buffer, Control
  % ON 01910.Na Remaining: 100.00%
[3]; Water, After 72 hours
  % ON 01910.Na Remaining: 5.36%
[3]; Water, Control
  % ON 01910.Na Remaining: 100.00%
[4]
  stability in IV infusion bags: stable over 24 hours
[5]
  solubility: very soluble
[6]
  expected degradation over a two year period: not be any Significant Degradation
  long term stability in the current formulation: Extremely Stable
